According to patent publication US20230012172A1, “COMPOSITIONS AND METHODS FOR TREATMENT OF PLATINUM-BASED CHEMOTHERAPEUTIC RESISTANT TUMORS” (The George Washington University, priority 2020, published 2023):

Key:
[1] = biological target: T1, SENP1 (Homo sapiens, UniProt Q9P0U3); assay: In vitro deSUMOylation assay with recombinant His-JAK2 and GST-SENP1; type: biochemical; parameters: made in house; host or cells: E. coli BL21 (DE3) for pET28a-JAK2; conditions: SUMOylated His-JAK2 incubated with GST-SENP1 and compound for 3 hours
T1 sequence (Q9P0U3 1-644): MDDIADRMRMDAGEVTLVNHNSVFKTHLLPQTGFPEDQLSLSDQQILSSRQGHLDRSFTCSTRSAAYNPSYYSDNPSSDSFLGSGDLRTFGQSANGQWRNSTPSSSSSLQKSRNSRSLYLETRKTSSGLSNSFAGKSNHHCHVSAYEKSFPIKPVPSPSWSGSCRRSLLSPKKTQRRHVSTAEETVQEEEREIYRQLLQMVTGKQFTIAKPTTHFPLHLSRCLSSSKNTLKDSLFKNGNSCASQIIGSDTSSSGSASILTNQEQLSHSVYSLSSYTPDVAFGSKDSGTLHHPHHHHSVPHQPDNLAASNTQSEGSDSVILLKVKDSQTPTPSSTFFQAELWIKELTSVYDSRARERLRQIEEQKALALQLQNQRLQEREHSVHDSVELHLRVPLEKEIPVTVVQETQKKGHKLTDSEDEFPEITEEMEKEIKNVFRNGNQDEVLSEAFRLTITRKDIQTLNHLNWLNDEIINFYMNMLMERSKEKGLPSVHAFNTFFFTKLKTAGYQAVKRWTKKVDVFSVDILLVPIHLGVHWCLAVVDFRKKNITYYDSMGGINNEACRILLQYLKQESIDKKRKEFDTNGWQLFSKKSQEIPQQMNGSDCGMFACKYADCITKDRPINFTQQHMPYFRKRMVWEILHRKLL
Description: To further determine whether SENP1 can directly deSUMOylate JAK2, in vitro deSUMOylation assays were performed by using purified recombinant His-JAK2 and GST-SENP1 proteins.
In vitro SUMOylation assay. The SUMOylation reactions were performed according to the manufacture's instruction (BML-UW8955-0001; ENZO). Briefly, 200 nM of purified HIS-JAK2 was suspended in reaction buffer (20 μl) containing Mg-ATP, SUMO E1, SUMO E2 and recombinant SUMOs. RanGAP1 (provided in the kit) was used as the substrate for positive control. The reaction was incubated at 37° C. for 60 minutes and terminated by using 20 μl of SDS loading buffer. […] The reactions were then subjected to Western blot to evaluate SUMOylation level.
Protein expression and purification. pET28a-JAK2 and its mutant was transformed in BL21 (DE3) E. coli cells by heat shot method at 42° C. and grown in Luria Broth (LB) at 37° C. E. coli cells were induced with 0.5 mM IPTG to induct protein expression. Cells were harvested by centrifugation at 5,000 g, 4° C. for 15 min and the pellet was resuspended in lysis buffer (20 mM Tris pH 7.9, 500 mM NaCl, 5 mM imidazole, 2 mM DTT and 1× protease inhibitor cocktail). Cells were then sonicated and centrifuged at 14,000 g, 4° C. for 15 min. 1 ml of Ni-NTA was added to the supernatant and incubated at 4° C. with end-to-end mixing for 2 hours and subjected to a column. The Ni-NTA resin was washed with 10 ml wash buffer (20 mM Tris pH 7.9, 250 mM NaCl, 15 mM Imidazole and 0.5 mM DTT) and eluted with 1 ml elution buffer (20 mM Tris pH 7.9, 250 mM NaCl and 1 M imidazole). The elute was then concentrated by using a protein concentrator (Thermo Scientific™ Pierce™) and resuspend in dialysis buffer (50 mM Tris pH 7.9, 50 mM NaCl, 2 mM DTT, and 10% glycerol). The purified protein was stored at −80° C. pGEX-4T1-SENP1 and its mutant were purified using following buffers: lysis buffer (1 mM DTT, and lx protease inhibitor cocktail, 800 mM NaCl, 5 mM EDTA, 50 mM Tris-pH8.0, 0.1% Triton x-100), wash buffer (800 mM NaCl, 5 mM EDTA, 50 mM Tris-pH8.0, 0.1% Triton x-100), elution buffer (40 mM glutathione, 800 mM NaCl, 5 mM EDTA, 50 mM Tris-pH8.0, 0.1% Triton x-100), dialysis buffer (50 mM Tris pH 7.9, 50 mM NaCl, 2 mM DTT, and 10% glycerol).

[2] = tested on: SKOV3 CR cells; assay: Cell viability assay (SRB) in SKOV3 CR cells; type: cell-based; conditions: for synergistic effects with cisplatin (combination index): SKOV3 CR cells
Description: Cell culture and resistance cell line establishment. IGROV1 cells, U2OS (HTB-96; ATCC), HEK293T (CRL-11268; ATCC) and SKOV3 cells (HTB-77; ATCC) were cultured at 37° C. in DMEM with 10% Fetal Bovine Serum (FBS). PEO1 (10032308; Sigma-Aldrich), PEO4 (10032309; Sigma-Aldrich), PEO14 (10032311; […] Sigma-Aldrich) were cultured at 37° C. in RPMI-1640 with 10% FBS. OV90 (CRL-11732; […] All the cells were cultured at in a humidified incubator with 5% CO2 atmosphere. Cisplatin resistant cell lines, including SKOV3 CR, IGROV1 CR and OV90 CR, were generated using an approach similar to that reported in Zhou et al., (2018) Oncogene 37, 3981-3997, the disclosure of which is incorporated herein in its entirety. Cell viability assay. Cells were seeded at 3,000 cells/well in 96-well plates were treated with drugs, followed by incubation for 48 hours, after which cell viability was detected using Sulforhodamine B (SRB) assay (64). Absorbance at 510 nm was detected using a SpectraMax Reader (Molecular Devices) and analyzed with SoftMax Analysis Software (Molecular Devices). Combinational index (CI) values were calculated using CompuSyn software.

[3] = tested on: SENP1; assay: SENP1 IHC in IGROV1 xenograft tumors of carboplatin-treated mice; type: in vivo, immunodeficient nude mice; conditions: carboplatin 20 mg/kg or 60 mg/kg
Description: (§1) The SENP1 protein level was increased while JAK2 SUMOylation was decreased correspondingly in IGROV1 cells treated with cisplatin in a time and dose dependent manner (FIGS. 4F and 4G). To further test the SENP1 induction by platinum drugs in vivo, SENP1 protein levels were measured in IGROV1 xenograft tumors using immunohistochemistry (IHC) in implanted immunodeficient nude mice that were treated with carboplatin at 20 mg/kg or 60 mg/kg after tumor was developed.
Immunohistochemistry. Immunohistochemical (IHC) staining and scoring were performed similar to that previously described n Zhou et al., (2018) Oncogene 37, 3981-3997, the disclosure of which is incorporated herein in its entirety. The quantification of immunohistochemical staining was scored blindly at least by two independent observers.

[4] = tested on: IGROV1 CR cells; assay: Cell viability assay (SRB) in IGROV1 CR cells; type: cell-based, human; conditions: for toxicity (cell viability): 150 nM, IGROVI CR cells
Description: Cell culture and resistance cell line establishment. IGROV1 cells, U2OS (HTB-96; ATCC), HEK293T (CRL-11268; ATCC) and SKOV3 cells (HTB-77; ATCC) were cultured at 37° C. in DMEM with 10% Fetal Bovine Serum (FBS). PEO1 (10032308; Sigma-Aldrich), PEO4 (10032309; Sigma-Aldrich), PEO14 (10032311; Sigma-Aldrich) and PE023 cells (10032313; Sigma-Aldrich) were cultured at 37° C. in RPMI-1640 with 10% FBS. OV90 (CRL-11732; ATCC) was cultured in medium containing 1:1 MCDB 105 (Sigma) and M199 (Sigma) supplemented with 10% FBS at 37 ° C. All the cells were cultured at in a humidified incubator with 5% CO2 atmosphere. Cisplatin resistant cell lines, including SKOV3 CR, IGROV1 CR and OV90 CR, were generated using an approach similar to that reported in Zhou et al., (2018) Oncogene 37, 3981-3997, the disclosure of which is incorporated herein in its entirety.
Cell viability assay. Cells were seeded at 3,000 cells/well in 96-well plates were treated with drugs, followed by incubation for 48 hours, after which cell viability was detected using Sulforhodamine B (SRB) assay (64). Absorbance at 510 nm was detected using a SpectraMax Reader (Molecular Devices) and analyzed with SoftMax Analysis Software (Molecular Devices). Combinational index (CI) values were calculated using CompuSyn software.

[5] = tested on: SENP1; assay: SENP1 protein and JAK2 SUMOylation in IGROV1 cells treated with cisplatin (Western blot); type: cell-based, human; conditions: time and dose dependent
Description: as §1

[6] = tested on: JAK2; assay: Cell-free kinase assay with JAK2 purified from treated cells, recombinant STAT3 substrate; type: biochemical; conditions: JAK2 purified from IGROV1 cells treated with inhibitor
Description: Phosphorylation of STAT3 at tyrosine 705 (Y705) by JAK2 is one of the most important and well established cytoplasmic functions of JAK2. To determine whether accumulation of JAK2 in nucleus by depleting SENP1 affected JAK2 cytoplasmic activity, phosphorylated STAT3 (pSTAT3 (Y705)) levels was evaluated in SENP1 depleted IGROV1 cells.
To this end, cell-free kinase assays were performed using JAK2 purified from cells treated with siSENP1 or UAMMC9.

C[C@@H]1CC[C@]2(C(=O)O)CC[C@]3(C)C(=CC[C@@H]4[C@@]5(C)CC[C@H](O)C(C)(C)[C@@H]5CC[C@]43C)[C@@H]2[C@]1(C)O [pomolic acid]
inhibited SENP1 activity in vitro [1]: inhibited | synergistic effects with cisplatin (combination index) [2]: synergistic effects

C[C@@H]1CC[C@]2(C(=O)O)CC[C@]3(C)C(=CC[C@@H]4[C@@]5(C)C[C@@H](O)[C@H](O)C(C)(C)[C@@H]5CC[C@]43C)[C@@H]2[C@]1(C)O [tormentic acid]
inhibited SENP1 activity in vitro [1]: inhibited | synergistic effects with cisplatin (combination index) [2]: synergistic effects

N.N.O=C([O-])C1(C(=O)[O-])CCC1.[Pt+2] [Carboplatin, carboplatin]
SENP1 expression in ovarian tumors (IHC) [3]: significant increase

C[C@H]1[C@H](C)CC[C@]2(C(=O)O)CC[C@]3(C)C(=CC[C@@H]4[C@@]5(C)C[C@@H](O)[C@H](O)C(C)(C)[C@@H]5CC[C@]43C)[C@H]12 [corosolicin acid]
synergistic effects with cisplatin (combination index) [2]: synergistic effects

C[C@@H]1CC[C@]2(C(=O)OCCNC(=O)OC(C)(C)C)CC[C@]3(C)C(=CCC4[C@@]5(C)CC[C@H](O)C(C)(C)C5CC[C@]43C)C2[C@H]1C (stereo partly drawn) [UAMMC3]
toxicity (cell viability) [4]: higher toxicity

CC1(C)CC[C@]2(C(=O)O)[C@H](O)C[C@]3(C)C(=CC[C@@H]4[C@@]5(C)CC[C@H](O)C(C)(C)[C@@H]5CC[C@]43C)[C@H]2C1 [echinocyslic acid]
synergistic effects with cisplatin (combination index) [2]: synergistic effects

C[C@@H]1CC[C@]2(C(=O)OCC(=O)NCCO)CC[C@]3(C)C(=CCC4[C@@]5(C)CC[C@H](O)C(C)(C)C5CC[C@]43C)C2[C@H]1C (stereo partly drawn) [UAMMC5]
toxicity (cell viability) [4]: higher toxicity

N.N.[Cl][Pt][Cl] [Cisplatin, cisplatin]
IC50 ([2]; cisplatin alone or with 150 nM UAMMC, read-out: Cisplatin IC4 with 150 nM of UAMMCs on SKOV3 CR cells, IC50): 12.4 µM | IC50 ([4]; cisplatin alone or with 150 nM UAMMC, read-out: Cisplatin IC50 with 150 nM of UAMMCs on IGROV1 CR cells): 14.2 µM | JAK2 SUMOylation [5]: decreased | SENP1 protein level [5]: increased

Cc1cnc(Nc2ccc(OCCN3CCCC3)cc2)nc1Nc1cccc(S(=O)(=O)NC(C)(C)C)c1 [TG101348]
phosphorylation of recombinant substrate STAT3 proteins by purified JAK2 [6]: decreased phosphorylation

CC1CCC2(C(=O)NCC(=O)N(C)CCO)CCC3(C)C(=CCC4C5(C)CCC(O)C(C)(C)C5CCC43C)C2C1C (stereo not drawn) [UAMMC9]
decrease of the IC50 of cisplatin ([4]; 150 nM UAMMC9, IGROVI CR cells): 4.19 fold
